Experimental data from the supplement of paper PMC11451515.

Test system: NOMO1
Assay: cell viability relative to DMSO control; higher = less cytotoxic
Details: 48 h
Method in brief: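 Three leukemia lines were tested: NOMO1 and SEM at 500 cells/well and P12-Ichikawa at 1000 cells/well. Each was adapted for at least four passages in each medium and seeded in 5 μl in 1536-well plates, and library compounds in DMSO were pin-dosed from 47 μM to 0.79 nM in 11 threefold steps. After 48 h at 37°C, CellTiter-Glo One luminescence was read. Viability is a percentage relative to DMSO wells on each plate, with cell-free wells as background.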

[1] = HPLM + 10% dialyzed FBS, 0.000781 µM
[2] = HPLM + 10% dialyzed FBS, 0.00234 µM
[3] = HPLM + 10% dialyzed FBS, 0.00702 µM
[4] = HPLM + 10% dialyzed FBS, 0.0211 µM
[5] = HPLM + 10% dialyzed FBS, 0.0632 µM
[6] = HPLM + 10% dialyzed FBS, 0.19 µM
[7] = HPLM + 10% dialyzed FBS, 0.569 µM
[8] = HPLM + 10% dialyzed FBS, 1.71 µM
[9] = HPLM + 10% dialyzed FBS, 5.12 µM
[10] = HPLM + 10% dialyzed FBS, 15.4 µM
[11] = HPLM + 10% dialyzed FBS, 46.1 µM
[12] = RPMI 5 mM glucose + 10% dialyzed FBS, 0.000781 µM
[13] = RPMI 5 mM glucose + 10% dialyzed FBS, 0.00234 µM
[14] = RPMI 5 mM glucose + 10% dialyzed FBS, 0.00702 µM
[15] = RPMI 5 mM glucose + 10% dialyzed FBS, 0.0211 µM
[16] = RPMI 5 mM glucose + 10% dialyzed FBS, 0.0632 µM
[17] = RPMI 5 mM glucose + 10% dialyzed FBS, 0.19 µM
[18] = RPMI 5 mM glucose + 10% dialyzed FBS, 0.569 µM
[19] = RPMI 5 mM glucose + 10% dialyzed FBS, 1.71 µM
[20] = RPMI 5 mM glucose + 10% dialyzed FBS, 5.12 µM
[21] = RPMI 5 mM glucose + 10% dialyzed FBS, 15.4 µM
[22] = RPMI 5 mM glucose + 10% dialyzed FBS, 46.1 µM
[23] = RPMI 5 mM glucose + 10% FBS, 0.000781 µM
[24] = RPMI 5 mM glucose + 10% FBS, 0.00234 µM
[25] = RPMI 5 mM glucose + 10% FBS, 0.00702 µM
[26] = RPMI 5 mM glucose + 10% FBS, 0.0211 µM
[27] = RPMI 5 mM glucose + 10% FBS, 0.0632 µM
[28] = RPMI 5 mM glucose + 10% FBS, 0.19 µM
[29] = RPMI 5 mM glucose + 10% FBS, 0.569 µM
[30] = RPMI 5 mM glucose + 10% FBS, 1.71 µM
[31] = RPMI 5 mM glucose + 10% FBS, 5.12 µM
[32] = RPMI 5 mM glucose + 10% FBS, 15.4 µM
[33] = RPMI 5 mM glucose + 10% FBS, 46.1 µM

SMILES | cell viability [1] [%] | cell viability [2] [%] | cell viability [3] [%] | cell viability [4] [%] | cell viability [5] [%] | cell viability [6] [%] | cell viability [7] [%] | cell viability [8] [%] | cell viability [9] [%] | cell viability [10] [%] | cell viability [11] [%] | cell viability [12] [%] | cell viability [13] [%] | cell viability [14] [%] | cell viability [15] [%] | cell viability [16] [%] | cell viability [17] [%] | cell viability [18] [%] | cell viability [19] [%] | cell viability [20] [%] | cell viability [21] [%] | cell viability [22] [%] | cell viability [23] [%] | cell viability [24] [%] | cell viability [25] [%] | cell viability [26] [%] | cell viability [27] [%] | cell viability [28] [%] | cell viability [29] [%] | cell viability [30] [%] | cell viability [31] [%] | cell viability [32] [%] | cell viability [33] [%]
CCNc1cc(NC2CCC(O)CC2)nc(Nc2ccc3c(ccn3Cc3ccccc3)c2)n1 (stereo unspecified) | 113 | 121 | 126 | 124 | 147 | 118 | 127 | 139 | 121 | 116 | 120 | 115 | 123 | 124 | 142 | 141 | 129 | 148 | 121 | 150 | 145 | 106 | – | – | – | – | – | – | – | – | – | – | –
C#Cc1cccc(Nc2ncnc3cc(OC)c(OCCCCCCC(=O)NO)cc23)c1 | 125 | 119 | 136 | 129 | 111 | 98.2 | 41.5 | 18.4 | 7.85 | 8.02 | 3.32 | – | – | – | – | – | – | – | – | – | – | – | – | – | – | – | – | – | – | – | – | – | –
O=C1NC(=O)/C(=C/c2cccc(C(F)(F)F)c2)S1 | 114 | 95.1 | 96.8 | 113 | 102 | 98.4 | 108 | 99.1 | 92.8 | 96.9 | 90 | 95.5 | 99.6 | 99 | 104 | 93.1 | 92.9 | 93.2 | 108 | 103 | 87.9 | 92.2 | 90.3 | 90.2 | 94.1 | 101 | 106 | 97.8 | 97.8 | 93.2 | 101 | 96.5 | 80.1
O=C(CCCCCCC(=O)Nc1ccccc1)NO | 92.9 | 102 | 106 | 96.9 | 113 | 104 | 102 | 111 | 67.3 | 38.4 | 5.95 | 74.9 | 90.8 | 102 | 114 | 119 | 105 | 119 | 113 | 88.6 | 57.6 | 6.52 | 81.3 | 94 | 89.2 | 96.4 | 110 | 105 | 109 | 98.9 | 83.3 | 44 | 5
CN(C)c1ccc2cc(C(=O)N[C@@H](CCCNC(=N)CCl)C(=O)NCc3ccccc3)ccc2c1 | 108 | 128 | 108 | 121 | 125 | 107 | 112 | 112 | 106 | 87.2 | 14 | 114 | 109 | 103 | 110 | 111 | 119 | 115 | 105 | 105 | 98.7 | 12.5 | 92 | 119 | 104 | 96.3 | 98.5 | 102 | 97 | 98.6 | 100 | 85.4 | 8.34
COc1ccnc(C[S+]([O-])c2nc3cc(OC(F)F)ccc3[nH]2)c1OC (stereo unspecified) | 111 | 124 | 119 | 131 | 124 | 134 | 126 | 115 | 134 | 128 | 126 | – | – | – | – | – | – | – | – | – | – | – | – | – | – | – | – | – | – | – | – | – | –
CC(C)NCC(O)c1ccc(NS(C)(=O)=O)cc1 (stereo unspecified) | 110 | 114 | 110 | 120 | 126 | 119 | 101 | 113 | 109 | 102 | 111 | 87.9 | 103 | 110 | 102 | 105 | 124 | 102 | 94.1 | 102 | 98.1 | 117 | 90.5 | 91.9 | 104 | 86.2 | 90.7 | 98.6 | 89.4 | 89 | 94.1 | 104 | 94.2
Cc1cc(O)c2c(c1)C(=O)c1cc(O)cc(O)c1C2=O | 105 | 102 | 117 | 104 | 99.3 | 118 | 98.8 | 121 | 96.2 | 98.4 | 87.7 | 90.5 | 99 | 109 | 96.9 | 110 | 94.6 | 92.1 | 92 | 95.7 | 90.3 | 87.4 | 85.8 | 104 | 107 | 88.1 | 92.1 | 88 | 97.2 | 85.3 | 90.4 | 85.9 | 82.5
COc1cc2ncnc(Nc3cccc(Br)c3)c2cc1OC | 90.4 | 98.3 | 101 | 98.9 | 109 | 120 | 108 | 118 | 98.2 | 94.5 | 86.1 | 80.8 | 90.6 | 98.6 | 97.4 | 103 | 103 | 102 | 112 | 102 | 102 | 101 | 98 | 95.9 | 106 | 110 | 109 | 108 | 110 | 111 | 106 | 112 | 117
C[S+]([O-])c1ccc(-c2nc(-c3ccc(F)cc3)c(-c3ccncc3)[nH]2)cc1 (stereo unspecified) | 78.8 | 101 | 108 | 106 | 106 | 117 | 106 | 66.2 | 35.1 | 3.41 | 2.33 | 83.5 | 86.2 | 87.3 | 98.2 | 99.1 | 86.5 | 99.1 | 64.6 | 34.6 | 4.16 | 2.47 | 80 | 90.4 | 105 | 95 | 113 | 96.3 | 106 | 75.9 | 29.7 | 4.04 | 2.28
Cc1cc(Cl)ccc1OCCCC(=O)NO | 106 | 117 | 107 | 94.8 | 110 | 122 | 117 | 112 | 103 | 67 | 33.5 | 105 | 121 | 101 | 114 | 99.5 | 104 | 119 | 114 | 117 | 73.4 | 31 | 93.5 | 112 | 93.2 | 112 | 113 | 96.9 | 106 | 107 | 94 | 52.3 | 15.9
Cc1ccc(-c2ncn(-c3ccc(Nc4nccc(-c5cccc(N6CCOCC6)c5)n4)cc3)n2)cn1 | 94.8 | 90.9 | 96.8 | 109 | 105 | 87.8 | 13.6 | 10.2 | 7.32 | 8.09 | 5.6 | 87.7 | 94.2 | 88.9 | 97.8 | 94.9 | 89.2 | 20.3 | 8.8 | 8.22 | 7.85 | 5.33 | 88.4 | 40 | 80.9 | 94.6 | 86.4 | 87.4 | 16.4 | 8.16 | 7.21 | 5.58 | 6.57
CC(C)(C)NC(=O)[C@H]1CC[C@H]2[C@@H]3CC[C@H]4NC(=O)\C=C/[C@]4(C)[C@H]3CC[C@]12C | 76.6 | 94.6 | 109 | 108 | 107 | 99.8 | 112 | 84.3 | 27.2 | 26.8 | 27.4 | 95.8 | 105 | 100 | 107 | 107 | 108 | 115 | 102 | 26.3 | 25.2 | 18.8 | 101 | 95.7 | 102 | 96.5 | 96.6 | 111 | 109 | 71 | 20.9 | 18.7 | 14.5
Cc1cn(CCN2CCN(c3ccccc3-c3cc(C#N)cc(C(=O)NCCCN4CCCC4)c3)CC2)c2ccccc12 | 103 | 111 | 111 | 121 | 148 | 130 | 127 | 134 | 85.3 | 35.3 | 10.7 | 119 | 102 | 109 | 119 | 120 | 110 | 124 | 112 | 96.4 | 44.5 | 25.5 | 102 | 110 | 115 | 109 | 125 | 119 | 119 | 112 | 108 | 38.4 | 22.7
CC(NCc1ccc2c(c1)[nH]/c(=N\C(=O)c1ccc(-c3cn[nH]c3)s1)n2CC(C)(C)O)C(C)(C)C (stereo unspecified) | 110 | 109 | 113 | 112 | 106 | 103 | 74.4 | 54.1 | 9.83 | 5.43 | 4.17 | 116 | 100 | 110 | 99.5 | 101 | 101 | 92.9 | 69.7 | 8.51 | 4.24 | 2.97 | 110 | 104 | 109 | 98.7 | 102 | 103 | 98.7 | 87.2 | 10.8 | 5.4 | 3.08
CN(C)CCCNC(=O)c1ccc(-c2cc(O)c3ncccc3c2)cc1 | 113 | 110 | 109 | 107 | 105 | 85.9 | 117 | 98.8 | 114 | 86.7 | 60.1 | 96.3 | 94.6 | 112 | 98.1 | 102 | 112 | 94.2 | 101 | 106 | 91.1 | 62.8 | 89.1 | 89.5 | 96.2 | 99.5 | 103 | 84 | 86.1 | 87.7 | 97.2 | 85.9 | 82.4
CCN(C)C(=O)Oc1cccc([C@H](C)N(C)C)c1 | 110 | 117 | 124 | 128 | 102 | 110 | 122 | 95.3 | 99.9 | 109 | 106 | 101 | 98.3 | 104 | 111 | 109 | 97.7 | 91.6 | 87.1 | 105 | 98.5 | 110 | 95.9 | 102 | 99.3 | 105 | 108 | 94.4 | 108 | 111 | 92.6 | 112 | 98.4
